Reference: ChEMBL document CHEMBL1124017, “Synthesis, absolute configuration, and molecular modeling study of etoxadrol, a potent phencyclidine-like agonist” (J Med Chem, 1988)
pKi: −log10 of the molar value.

Assays:
[1] = organism: Rattus norvegicus; assay: Behavioral potency by which rat discriminate phencyclidine from saline in a 2 lever drug discrimination procedure; assay type: functional
[2] = biological target: Glutamate NMDA receptor; assay: Displacement of [3H]TCP from tissue homogenate preparation of whole rat brain minus cerebellum; assay type: tissue-based

SMILES	pKi [2]	ED50 [1]
CC[C@]1(c2ccccc2)OC[C@H]([C@@H]2CCCCN2)O1 [ETOXADROL]	6.97	2.4 µM
CC[C@@]1(c2ccccc2)OC[C@@H]([C@H]2CCCCN2)O1	5.64	>100 µM
CC[C@@]1(c2ccccc2)OC[C@@H]([C@@H]2CCCCN2)O1.CC[C@]1(c2ccccc2)OC[C@@H]([C@@H]2CCCCN2)O1	4.40	>100 µM

Further lines, with some results ahead:

pKi [2]	SMILES	ED50 [1]
5.43	CC[C@@]1(c2ccccc2)OC[C@H]([C@@H]2CCCCN2)O1	
4.42	CC[C@@]1(c2ccccc2)OC[C@H]([C@H]2CCCCN2)O1.CC[C@]1(c2ccccc2)OC[C@H]([C@H]2CCCCN2)O1	>100 µM
